Where no end group is shown, it is not given here. [ ]: non-standard residue; d: D form.

From patent publication US20170057995A1, “USE OF AROMATIC-CATIONIC PEPTIDES TO TREAT CHOLESTEROL-INDUCED MITOCHONDRIAL DYSFUNCTION” (CORNELL UNIVERSITY, priority 2013, published 2017) come the findings set out here.

The subject of test [1] is cytochrome c. In words: Cytochrome c peroxidase activity (Amplex Red Peroxidase Kit). In kind it is biochemical. Particulars: for reduction in cytochrome c peroxidase activity compared to cytochrome c exposed to chol-POPC liposomes only: 300 μM chol-POPC liposomes, cytochrome c incubated with peptide first, peptide concentration not stated (FIG. 2 range 0-300 μM); for effect on cholesterol-induced cytochrome c peroxidase activity (FIG. 2): peptide 0 μM to 300 μM, 300 μM cholesterol. On the procedure:
Cytochrome c peroxidase activity was measured using the Amplex Red Peroxidase Kit. Amplex Red reagent reacts with H2O2 in a 1:1 ratio in the presence of a peroxidase in order to create a highly fluorescent compound called resorufin, which has an excitation at 570 nm and an emission at 585 nm. 2 μM cytochrome c was incubated in 20 mM Hepes buffer pH 7.4 with varying concentrations of free cholesterol dissolved in ethanol or cholesterol-POPC liposomes (chol-POPC). 10 μM of H2O2 and 50 μM of Amplex Red reagent were subsequently added. The fluorescence was then measured using time course data collected from a Spectra Max 190 microplate spectrofluorometer (Molecular Devices, Sunnyvale, Calif.). Liposomes were prepared as previously described in Melzak et al., Langmuir, 24: 9172-9180 (2008). Chol-POPC liposomes were prepared in a 1:1 molar ratio. Stock solutions were mixed and then dried under nitrogen from 30 minutes. After resuspension in 20 mM Hepes buffer pH 7.4, the liposomes were extruded 25 times through a 50 nm pore membrane (Avestin).

The subject of test [2] is cytochrome c. The test can be described thus: Cytochrome c reduction by ascorbate (absorbance at 550 nm). In kind it is biochemical. Particulars: 100 μM chol-POPC liposomes, 20 μM cytochrome c, 50 μM vitamin C; peptide up to 300 μM. How it is done: Liposomes were prepared as previously described in Melzak et al., Langmuir, 24: 9172-9180 (2008). Chol-POPC liposomes were prepared in a 1:1 molar ratio. Stock solutions were mixed and then dried under nitrogen from 30 minutes. After resuspension in 20 mM Hepes buffer pH 7.4, the liposomes were extruded 25 times through a 50 nm pore membrane (Avestin). 20 μM cytochrome c in Hepes buffer pH 7.4 was contacted with varying concentrations of chol-POPC liposomes and peptide. 50 μM ascorbate (vitamin C) was added after five minutes in order to promote the reduction the cytochrome c protein. The absorbance at 550 nm was then recorded in order to obtain the rate of the reaction after treatment with varying concentrations of peptide and cholesterol using a spectrophotometer (Spectramax Gemini XPS, Molecular Devices, Sunnyvale, Calif.). (See Basova et al., 2007).

Test [3] deals with cytochrome c. In words: Absorbance spectrum of cytochrome c (Soret band, 350-450 nm). The following applies: 100 μM peptide. How it is done:
The effects of cholesterol and aromatic-cationic peptides on the structure of cytochrome c were analyzed using absorbance spectra (Pinherio et al., 1997). Wild-type cytochrome c typically has a peak at around 410 nm (which represents the Soret region) that may be affected by protein damage. Absorbance between 350-450 nm was analyzed using a Spectramax Gemini XPS spectrophotometer (Molecular Devices, Sunnyvale, Calif.).
Cholesterol-induced structural alterations of cytochrome c were also analyzed using absorption spectroscopy. The absorbance spectrum between 350 and 450 nm was analyzed so as to monitor changes to the Soret band. A Soret band with a maximum intensity at 410 nm is indicative of the presence of both axial ligands (His18 and Met80 ligated to heme iron). (Pinherio et al., 1997).

In test [4] the test system is cytochrome c. In words: Circular dichroism spectroscopy of cytochrome c (Soret region). The following applies: 100 μM peptide; 40 μM chol-POPC liposomes; 10 mM cytochrome c. On the procedure:
The circular dichroism (CD) spectra was collected using an AVIA 62 DS spectrophotometer. The CD spectra was analyzed between 375-450 nm in order to monitor the Soret region using a CD 10-mm path-length for cells containing 20 mM Hepes (pH 7.4) and […] cytochrome c in the presence or absence of 40 μM chol-POPC liposomes and/or 100 μM SS-31.
Circular dichroism (Olis DSM20 spectropolarimeter) was carried out to analyze Soret region (375-450 nm), a probe for the attachment of the Met80 residue to the heme iron. The decreased intensity of the 416 nm Cotton effect (negative Cotton peak) is indicative of a perturbed heme pocket region, as the 416 nm dichroic band serves as a readout for the Met80-Fe(III) coordination in native cytochrome c. (Santucci et al., 1997). […] The CD spectra data comports with the findings of Examples 1 and 3 because the disruption of the Fe-Met80 coordination increases the exposure of the heme Fe to H2O2, thereby causing cytochrome c to switch from an electron carrier to a peroxidase.
On the technique in general: Circular dichroism is widely used to follow secondary structure.

As for `CC(C)CCC[C@@H](C)[C@H]1CC[C@H]2[C@@H]3CC=C4C[C@@H](O)CC[C@]4(C)[C@H]3CC[C@]12C` [cholesterol], the “increase in cytochrome c peroxidase activity” value in the test on cytochrome c [1] (300 μM, 2 μM cytochrome c, 10 μM H2O2, 50 μM Amplex Red) was determined as 40 fold.
Take D-Arg-2′,6′-Dmt-Lys-Phe-NH2 [SS-31]: in the test on cytochrome c [1], the “reduction in cytochrome c peroxidase activity compared to cytochrome c exposed to chol-POPC liposomes only” value amounted to 75%. Further, the “effect on cholesterol-induced cytochrome c peroxidase activity (FIG. 2)” value in the test on cytochrome c [1] (2 μM cytochrome c) is “inhibit cholesterol-induced cytochrome c peroxidase activity in a dose-dependent manner”. The “effect on cholesterol-induced impairment of cytochrome c reduction (FIG. 3B)” value in the test on cytochrome c [2] is on record as “reversed”. For the same compound, the “intensity of the 410 nm absorbance peak of cytochrome c incubated with chol-POPC liposomes” value in the test with cytochrome c [3] is given as “increases the intensity of the 410 nm peak”. For the same compound, the “negative Cotton peak of cytochrome c incubated with chol-POPC liposomes (CD spectra)” value in the test on cytochrome c [4] is “restores the negative Cotton peak”.
Consider F[dR]FK-NH2 [SS-20], for which the “reduction in cytochrome c peroxidase activity compared to cytochrome c exposed to chol-POPC liposomes only” value with cytochrome c [1] is reported as 77%. Further, the “effect on cholesterol-induced cytochrome c peroxidase activity (FIG. 2)” value in the test on cytochrome c [1] (2 μM cytochrome c) is “inhibit cholesterol-induced cytochrome c peroxidase activity in a dose-dependent manner”. Also, in the test with cytochrome c [2], the “effect on cholesterol-induced impairment of cytochrome c reduction (FIG. 3B)” value was “reversed”.
